In US20240336595A1, “BIFUNCTIONAL COMPOUNDS FOR DEGRADING BTK WITH DIMINISHED IMID ACTIVITY” (NURIX THERAPEUTICS, INC., priority 2021, published 2024):
Entries after “also recorded” stand apart in the source; their conditions may differ.

Tests used:
[1] = target: T1, BTK (Mus musculus, UniProt P35991); experiment: BTK level in spleen B cells after NP-KLH immunization; assay type: in vivo, Mice; design: from tissue; host or cells: mouse spleen B cells (CD19+ TCRbeta-)
Experimental: (§1) Mice were immunized by intraperitoneal injection of 200 μL of immunogen containing 100 μg NP-32-KLH (Biosearch Technologies, Cat. N-5060-25,Lot. 156285-01) and 1% Alum (Alhydrogel, 2%, Invivogen Cat. Vac-alu-250, Batch 0001715532, Exp. July 2022), prepared in phosphate buffered saline. Group 1 mice were not immunized and used as control. Mice in Group 2 to 5 were dosed orally once a day from Day 1 to Day 7 with compounds or vehicle for six additional days and then sacrificed the following day. Splenocytes and bone marrow were harvested 24 hours following the final dosing of compound on Day 7. Spleens harvested at the end of the study were dissociated, and red blood cells were lysed with ammonium-chloride-potassium (ACK) lysis buffer. 1 million cells per tissue were stained for each flow cytometry panel.
Cells were permeabilized and stained for lineage markers and intracellular BTK. B cells were gated on CD19+ TCRbeta−, and T cells were gated on CD19− and TCRbeta+.

[2] = system: collagen-induced arthritis (CIA) model; experiment: Collagen-induced arthritis (CIA) model; assay type: in vivo; conditions: mouse CIA, daily oral 30 mg/kg
Source text: Immunization with Collagen Type II (CII) in an adjuvant induces polyarthritis in rodents. This model known as the collagen-induced arthritis (CIA) model, is widely used for studying arthritis and resemble many aspect of the human disease. High level of anti-collagen II correlates with disease severity. In FIG. 1 CIA was induced by immunization with type II collagen in complete Freund's adjuvant on Day 0. A second boost was given on Day 21. Treatment with vehicle or therapeutic agents was initiated on Day 18 and continued to day 35. At the end of the study on Day 36, serum was collected. […] Significance of clinical arthritis score (A) was determined from the area under the curve (AUC) of mean paw scores calculated for individual mice. (C) Serum levels of anti-type II collagen IgG. Statistical significance was determined between vehicle control and treated groups with one-way Kruskal-Wallis ANOVA and Dunn's multiple comparisons test.

[3] = system: B cells compartment; experiment: Dosing effect on B cells compartment (B cells, plasma cells); assay type: in vivo, C57BL/6 mice; conditions: 30 mg/kg in water bottle
Experimental: (§2) A separate group of mice received vehicle formulation as control. Blood spleens and femurs for each treated mice were harvested at the end of the study. Peritoneal lavage was also performed with PBS to harvest peritoneal resident lymphocyte.
It is plausible that Compound 1 affects one or multiple proteins that are involved either in generation or the survival of plasma cells and that this effect is independent from its ability to degrade the BTK protein. Left, representative dot plots showing the gating strategy to identify plasma cells in bone marrow. Right histograms showing cumulative data from multiple treated animals.
(§3) An ordinary one-way ANOVA with Tukey's multiple comparisons test was performed, and all groups were compared to each other. * p<0.05, ** p<0.01,**** p<0.001. All comparisons without an asterisk were not significant.

[4] = system: plasma cell generation; experiment: Plasma cell generation upon NP-KLH immunization; assay type: in vivo, Mice
Experimental: as §1
Splenocytes were stained for lineage markers with fluorophore-conjugated antibodies and for NP hapten reactivity with NP-conjugated to phycoerythrin (NP-PE). Live single lymphocytes were gated for B cells (CD19+B220+) and then gated for IgD+ and IgD− B cells. IgD− B cells were then gated for germinal center B cells (Fas+GL-7+), and germinal center B cells were gated for NP+ cells on the basis of staining with NP-PE.
as §3

[5] = system: Aiolos; experiment: IMiD activity: Aiolos degradation in PBMCs by flow cytometry; assay type: cell-based; conditions: human PBMCs, 24 hours
Experimental: In addition, Compounds 1-24 were assayed for IMiD activity. Frozen human peripheral blood mononuclear cells (PBMCs) were thawed and treated with DMSO or compound for 24 hours and then fixed and permeabilized using a Foxp3/Transcription Factor Fixation/Permeabilization Kit (eBioscience, 00-5523). Cells were stained with fluorophore-conjugated antibodies against CD20 (Biolegend 302330), CD3 (BD Pharmingen 552127), and Aiolos (Biolegend 371106). An additional set of DMSO-treated PBMCs was stained for CD20, CD3, and an AlexaFluor 647-conjugated mouse IgG1 isotype control antibody (Biolegend 400136). Stained cells were run on an Attune NxT Acoustic Focusing Flow Cytometer (Thermo-Fisher A29004), and data was analyzed using FlowJo (v10.5.3) and GraphPad Prism (v7.00) software. Single lymphocytes were gated for B cells (CD20+CD3-) and T cells (CD3+CD20-), and the geometric mean fluorescence intensity (MFI) of Aiolos was calculated for each population. The MFI of the isotype control was calculated for each population and used to quantify background staining. Percent Aiolos degradation was calculated for each compound-treated sample using the following equation: […]
DC50 is the compound concentration degrading 50% of Aiolos. Dmax is the maximum percent Aiolos degradation in the assay.

[6] = target: T1, BTK; experiment: BTK level in B cells of dosed mice; assay type: in vivo, C57BL/6 mice; design: Single cell suspensions from each tissue were permeabilized and stained for lineage markers and intracellular BTK; from tissue; conditions: 30 mg/kg in water bottle; blood, spleens, peritoneum and bone marrow
Experimental: as §2
To evaluate level of BTK in B cells, Single cell suspensions from each tissue were permeabilized and stained for lineage markers and intracellular BTK. B cells were gated on B220+ TCRbeta−, and T cells were gated on B220− and TCRbeta+.

[7] = system: plasma cells; experiment: Plasma cell counts in spleen and bone marrow, established arthritis model; assay type: in vivo, male DBA/1 mice
Source text: (B) Spleens harvested at the end of the study were dissociated, and red blood cells were lysed with ammonium-chloride-potassium (ACK) lysis buffer. 1.5 million cells per spleen were stained for flow cytometry, and live single lymphocytes were gated for plasma cells (CD138+ IgD−). Plasma cells numbers were normalized to total B cells in spleen (CD19+B220+).
(C) Bone marrow was isolated from femurs harvested at the end of the study, and samples were processed and analyzed as in (B).
In (B) and (C), ordinary one-way ANOVAs with Dunnett's multiple comparisons tests were performed.

T1 sequence (P35991 whole entry): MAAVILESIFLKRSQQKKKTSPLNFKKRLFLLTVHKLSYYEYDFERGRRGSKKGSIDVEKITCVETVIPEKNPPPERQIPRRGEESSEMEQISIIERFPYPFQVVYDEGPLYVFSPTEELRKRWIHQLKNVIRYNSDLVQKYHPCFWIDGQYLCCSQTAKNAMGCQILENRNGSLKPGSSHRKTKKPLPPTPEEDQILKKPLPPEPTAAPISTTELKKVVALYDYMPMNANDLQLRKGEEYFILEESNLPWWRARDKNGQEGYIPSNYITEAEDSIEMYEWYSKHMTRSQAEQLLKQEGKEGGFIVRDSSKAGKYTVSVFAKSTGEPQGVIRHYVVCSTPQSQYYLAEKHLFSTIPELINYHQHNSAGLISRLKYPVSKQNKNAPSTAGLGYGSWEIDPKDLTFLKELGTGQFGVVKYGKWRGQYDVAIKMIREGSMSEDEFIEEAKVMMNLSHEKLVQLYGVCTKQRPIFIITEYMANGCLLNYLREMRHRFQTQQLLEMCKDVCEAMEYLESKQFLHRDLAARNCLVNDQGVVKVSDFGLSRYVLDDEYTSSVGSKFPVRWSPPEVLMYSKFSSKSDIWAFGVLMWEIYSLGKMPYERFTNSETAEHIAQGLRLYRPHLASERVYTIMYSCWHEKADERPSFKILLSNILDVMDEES

How did the “BTK degradation in spleens” value ([1]; NP-KLH immunized mice, oral once a day) turn out when CN1CCN([C@@H]2CCCN(c3cnc(C(N)=O)c(Nc4ccc(C5CCN(CC6CCN(c7ccc(C(=O)N[C@H]8CCC(=O)NC8=O)nc7)CC6)CC5)cc4)n3)C2)C1=O [Compound 1] was run?
The value was “robust BTK degradation”.

What about the “BTK levels (percent BTK remaining in B cells)” value ([1]; spleen, 24 hours after the final dose, normalized to naive group) of the same compound?
The value was 13.4 % of baseline.

What about the body weight [2] of the same compound?
The body weight was “minimal effect on body weight; also recorded: minimal body weight loss”.

And the mean arthritis score ([2]; Day 18 to day 35)?
Its mean arthritis score is “significant benefit; also recorded: lower mean arthritis score than ibrutinib; also recorded: lower mean arthritis score than standard of care agents”.

And the “plasma cells number in bone marrow” value [3]?
The value was “significantly reduce”.

What about the B cells percentage ([3]; blood, spleens, peritoneum and bone marrow) of the same compound?
The B cells percentage was “does not significantly affect”.

What about the “generation of plasma cells upon immunization” value ([4]; NP-KLH immunization, oral once a day Day 1 to Day 7) of the same compound?
The value was “significantly decrease”.

What about the germinal center formation ([4]; following NP-KLH immunization) of the same compound?
The germinal center formation was “do not affect”.

What about the “number of B cells in spleen” value ([4]; following NP-KLH immunization) of the same compound?
The value was “do not affect”.

And the “number of IgG1+ plasma cells in spleen” value ([4]; immunized mice)?
Its value is “significantly decrease”.

And the “number of total Plasma cells in spleen” value ([4]; immunized mice)?
Its value is “significantly decrease”.

And the DC50 ([5]; compound concentration degrading 50% of Aiolos)?
Its DC50 is 631 nM.

What about the Dmax ([5]; maximum percent Aiolos degradation in the assay) of the same compound?
Its Dmax is 18.7%.

What about the “BTK level in B cells” value [6] of the same compound?
Its value is “robust BTK degradation”.

And the “plasma cells in spleen, normalized to total B cells” value ([7]; 30 mg/kg, vs 30 mg/kg rilzabrutinib and ibrutinib)?
Its value is “significantly fewer plasma cells than mice treated with an equivalent dose of BTK inhibitors”.

What about the “plasma cells in spleen, normalized to total B cells” value ([7]; both doses (10 and 30 mg/kg), vs vehicle) of the same compound?
Its value is “significantly fewer plasma cells than vehicle-treated mice”.

And the “plasma cell numbers in the bone marrow” value ([7]; vs vehicle and vs equivalent doses of rilzabrutinib and ibrutinib)?
The value was “significantly reduced plasma cell numbers”.
